≈ marks a conversion by molar mass, not a printed value.

A short description of data set [1]: Solubility of the compound at pH 7.4. It is filed as physicochemical. The note with it: buffer.
The nature of data set [2]: Inhibition of Acinetobacter baumannii beta-lactamase OXA-235.
Data set [3] is described as follows: Inhibition of Acinetobacter baumannii beta-lactamase OXA-24.
Data set [4] is described as follows: Inhibition of Acinetobacter baumannii beta-lactamase OXA-143.
A short description of data set [5]: Oral bioavailability in human. The note with it: in vivo. The format is ADME, organism-based.
Data set [6] in a line: Half-life in human plasma. The format is ADME.
The subject of data set [7] is Mus musculus. Put plainly: Anticonvulsant activity in MES induced mouse model of seizure at 10 mg/kg, po measured after 4 hrs relative to control. The format is functional.
Data set [8] in a line: Drug excretion in human urine assessed as unchanged drug excreted. The format is ADME. The note with it: read-out: Drug excretion.
Data set [9] is described as follows: Clearance in dog plasma assessed as half-life. It is filed as ADME, cell-free, Canis lupus familiaris.
The nature of data set [10]: Clearance in rat plasma assessed as half-life. The format is ADME, cell-free.
Data set [11] has as its target Muscarinic acetylcholine receptor M2 (Homo sapiens, UniProt P08172). Put plainly: Antagonist activity at muscarinic M2 receptor (unknown origin) assessed as inhibition constant.
Data set [12] can be described thus: Inhibition of Leukotriene B4 production in human blood Polymorphonuclear neutrophil cells. The format is functional, tissue-based.
For data set [13], the species on record is Homo sapiens. Put plainly: Inhibition of Leukotriene B4 production in human whole blood. The format is functional.
Data set [14] is described as follows: Stability of the compound assessed as compound hydrolysis by measuring relative rate constant by dilatometric method. The format is physicochemical.
The subject of data set [15] is CCRF-CEM. Put plainly: Anticancer activity against human CCRF-CEM cells. It is filed as functional, cell-based.
Data set [16] has as its system Human immunodeficiency virus 1. Put plainly: microbe, parasite or virus in culture. The note with it: Human immunodeficiency virus 1, LAV.
For data set [17], the system named is Human immunodeficiency virus 1. Put plainly: Antiviral activity against HIV-1 RF. The format is functional, organism-based. The note with it: Human immunodeficiency virus 1, RF.
Data set [18] is described as follows: Drug degradation in citrate buffer at pH 4 measured after 18 hrs. The format is physicochemical. As to conditions: read-out: Drug degradation.
The nature of data set [19]: Dissociation constant, pKa of the compound. The format is physicochemical.
Data set [20] is described as follows: Drug degradation in citrate buffer at pH 8.5 measured after 18 hrs. It is filed as physicochemical. As to conditions: read-out: Drug degradation.
For data set [21], the target named is Sterol O-acyltransferase 1 (Homo sapiens, UniProt P35610). Put plainly: Inhibition of ACAT in human THP-1. It is filed as cell-based.
Chain of Sterol O-acyltransferase 1 (P35610 whole entry): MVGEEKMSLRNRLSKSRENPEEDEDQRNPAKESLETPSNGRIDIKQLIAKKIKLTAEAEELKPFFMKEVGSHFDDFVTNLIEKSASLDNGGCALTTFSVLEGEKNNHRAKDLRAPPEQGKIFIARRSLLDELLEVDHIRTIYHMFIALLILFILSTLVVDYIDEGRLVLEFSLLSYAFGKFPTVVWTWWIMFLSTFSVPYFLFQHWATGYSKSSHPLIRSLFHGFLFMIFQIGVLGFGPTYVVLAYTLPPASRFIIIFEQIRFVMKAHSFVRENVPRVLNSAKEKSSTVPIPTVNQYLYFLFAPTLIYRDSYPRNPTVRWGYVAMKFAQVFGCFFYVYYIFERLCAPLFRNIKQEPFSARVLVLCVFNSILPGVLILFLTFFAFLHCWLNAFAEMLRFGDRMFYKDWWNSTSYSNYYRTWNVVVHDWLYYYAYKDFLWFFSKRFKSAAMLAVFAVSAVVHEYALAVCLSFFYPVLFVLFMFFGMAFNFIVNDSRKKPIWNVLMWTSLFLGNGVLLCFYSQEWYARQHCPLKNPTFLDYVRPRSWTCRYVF
Data set [22] has as its target Polymerase acidic protein (Influenza A virus (A/Puerto Rico/8/1934(H1N1)), UniProt P03433). Put plainly: Inhibition of Influenza A virus CEN.
For data set [23], the system named is Candida albicans. Put plainly: Antifungal activity against Candida albicans GS. The format is functional, organism-based.
Data set [24] can be described thus: Clearance in Chimpanzee at 0.5 mg/kg, iv bolus injection. The format is ADME, organism-based, Pan troglodytes. As to conditions: in vivo.
Data set [25] relates to Candida albicans. Put plainly: Fungicidal activity against Candida albicans. It is filed as functional.
Data set [26] can be described thus: Clearance in Chimpanzee at 0.5 mg/kg administered as iv infusion. The format is ADME, organism-based, Pan troglodytes. As to conditions: in vivo.
Data set [27] deals with Mus musculus. Put plainly: Ex vivo inhibition of FAAH in ip dosed mouse brain assessed as drug concentration required to inhibit [3H]ethanolamine degradation. The format is functional. As to conditions: read-out: ID50 (the source's name).
Data set [28] deals with Mus musculus. Put plainly: Ex vivo inhibition of FAAH in po dosed mouse brain assessed as drug concentration required to inhibit [3H]ethanolamine degradation. It is filed as functional. As to conditions: read-out: ID50 (the source's name).
Data set [29] can be described thus: Drug metabolism at pH 2 assessed as parent compound remaining measured after 120 mins. The format is physicochemical. The note with it: read-out: Drug metabolism.
The species entered for data set [30] is Mus musculus. Put plainly: Analgesic activity in mouse assessed as protection against phenylbenzoquinone-induced writhing. It is filed as functional. In general terms: In writhing tests, fewer writhes than in controls are read as antinociception.

Chain of Muscarinic acetylcholine receptor M2 (P08172 whole entry): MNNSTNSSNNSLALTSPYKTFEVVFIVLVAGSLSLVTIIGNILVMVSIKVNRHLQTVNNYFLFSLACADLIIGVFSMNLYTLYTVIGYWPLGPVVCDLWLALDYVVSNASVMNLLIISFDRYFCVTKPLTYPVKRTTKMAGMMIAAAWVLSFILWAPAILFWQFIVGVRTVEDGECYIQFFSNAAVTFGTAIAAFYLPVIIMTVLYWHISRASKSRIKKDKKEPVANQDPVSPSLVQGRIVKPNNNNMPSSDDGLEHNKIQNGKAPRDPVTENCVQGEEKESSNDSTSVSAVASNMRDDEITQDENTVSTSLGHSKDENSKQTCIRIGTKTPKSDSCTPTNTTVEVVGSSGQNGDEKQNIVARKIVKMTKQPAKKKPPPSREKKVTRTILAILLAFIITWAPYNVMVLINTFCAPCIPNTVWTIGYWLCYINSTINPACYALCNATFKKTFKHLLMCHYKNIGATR

For orientation: solubility means the concentration that dissolves in the medium under given conditions. A lower solubility goes with a poorly soluble substance. In the case of `Nc1nc2c(ncn2COCCO)c(=O)[nH]1` [ACYCLOVIR], the solubility in data set [1] turned out to be 2500 µg/mL (≈ 11.1 mM).

One may read the IC50 as the concentration needed to halve the response being measured. A high value points to a need for much substance. As for `C[C@]1(Cn2ccnn2)[C@H](C(=O)O)N2C(=O)C[C@H]2S1(=O)=O` [TAZOBACTAM], the IC50 is 4880 nM in [2], 27900 nM in data set [3] and 5900 nM in data set [4].

By bioavailability is commonly meant dose-corrected exposure relative to a reference, in per cent. Lower therefore signals little systemic uptake. What is called half-life is how long it takes for the measured level to halve. In the case of `CC1(C)O[C@@H]2[C@@H](CO[C@@]3(COS(N)(=O)=O)OC(C)(C)O[C@@H]23)O1` [TOPIRAMATE], the bioavailability in data set [5] was 80%. For the same molecule, the half-life in data set [6] was 21 h. This molecule also registered an Activity in data set [7] of 80%. For the same molecule, the dose excreted in data set [8] was determined as 70%.

On to `CCOc1ccc(Cc2cc([C@]34OC[C@](CO)(O3)[C@@H](O)[C@H](O)[C@H]4O)ccc2Cl)cc1` [ERTUGLIFLOZIN], for which the half-life in [9] is 7.6 h; in data set [10], 4.1 h.

One may read the Ki as the dissociation constant of the complex between target and ligand, obtained from inhibition or displacement. In the case of `CCCS(=O)(=O)N1CCC(N2CCC(C3(c4ccc(S(=O)(=O)c5ccc6c(c5)OCO6)cc4)CCCO3)CC2)CC1` (configuration not stated), the Ki in [11] is 5 nM.

With `O=C1OCc2c1cc1cc(OCc3cccc(C4(O)CC5COC(C4)O5)c3)ccc1c2-c1ccoc1` (configuration not stated), the IC50 in [12] was determined as 7 nM; in data set [13], 180 nM.

On to `C1COCO1`, for which the K in data set [14] was 1.

`Nc1nc(Cl)nc2c1ncn2[C@@H]1O[C@H](CO)[C@@H](O)[C@@H]1F` [CLOFARABINE] gave a bioavailability in data set [5] of 57%. The molecule further displayed an IC50 in data set [15] of 60 nM.

Broadly, the EC50 is the concentration at which the effect is half-maximal. Read a high EC50 as a need for much substance. Molecule `Nc1ccn([C@@H]2CS[C@H](CO)O2)c(=O)n1` [LAMIVUDINE] came in with an EC50 in [16] of 2000 nM. In data set [17], the 50% inhibitory concentration (IC50) worked out at 870 nM.

A word on the pKa: it is the negative logarithm of the acid dissociation constant. Low values mean a group that gives up its proton readily, high ones a group that holds its proton tightly. Regarding `CC(=O)NC[C@H]1CN(c2ccc(N3CCOCC3)c(F)c2)C(=O)O1` [LINEZOLID], the degraded at 18 h in data set [18] was less than 1%; in [20], 40%. In addition, the pKa in [19] is less than 6.

Consider `Cc1cc(C)n(CCCC[C@H]2CO[C@H](c3nc(-c4ccccc4)c(-c4ccccc4)[nH]3)OC2)n1`, for which the IC50 in [21] is greater than 500 nM.

Regarding `COC(=O)OCOc1c2n(ccc1=O)N([C@@H]1c3ccccc3SCc3c1ccc(F)c3F)[C@@H]1COCCN1C2=O` [BALOXAVIR MARBOXIL], in data set [22], the IC50 turned out to be 530 nM.

In the case of `CC1OCCO1`, in data set [14], the K is on record as 5.1 10^3No_unit.

For orientation: clearance means a measure of how efficiently the substance is removed, as volume per time. Read a high clearance as a high capacity for elimination. Usually MFC stands for the smallest concentration meeting the test's criterion for killing the fungus. Lower therefore signals greater fungicidal potency. `CC[C@H](C)C[C@H](C)CCCCCCCCC(=O)N[C@H]1C[C@@H](O)[C@@H](NCCN)NC(=O)[C@@H]2[C@@H](O)CCN2C(=O)[C@H]([C@H](O)CCN)NC(=O)[C@H]([C@H](O)[C@@H](O)c2ccc(O)cc2)NC(=O)[C@@H]2C[C@@H](O)CN2C(=O)[C@H]([C@@H](C)O)NC1=O` [CASPOFUNGIN] gave an IC50 in data set [23] of 0.6 nM. Also, the values for the clearance in data set [24] and in data set [26] were 0.26 mL/min/kg and 0.21 mL/min/kg, respectively. For the same molecule, the MFC in [25] was determined as 0.125 µg/mL (≈ 0.000114 mM).

In the case of `COc1ccc2c(cccc2[C@H]2CO[C@H](CCCNC(=O)OCC(N)=O)OC2)c1`, the ED50 in data set [27] came out at 0.1 mg/kg; in data set [28], 0.17 mg/kg.

As for `c1ccc([C@]23OC[C@H](CCn4c2nc2ccccc24)O3)cc1`, in data set [29], the remaining at 2 h was 93.5%. Also, the ED50 in data set [30] was 30 mg/kg.

The record behind these values is ChEMBL document CHEMBL5244275, “Geminal Diheteroatomic Motifs: Some Applications of Acetals, Ketals, and Their Sulfur and Nitrogen Homologues in Medicinal Chemistry and Drug Design” (J Med Chem, 2021).
